Laboratory results: patent US9302999B2, “Substituted triazoles as herbicides” (E. I. DU PONT DE NEMOURS AND COMPANY, priority 2012, dated 2016)

Tests used:
[1] = tested on: rice (Oryza sativa); experiment: Test B flooded paddy: rice; assay type: in vivo; conditions: Flood; 250 g ai/ha; applied to paddy water at 2-leaf stage; visually evaluated after 13 to 15 days
Procedure, shortened: (§1)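 Visual ratings on a 0–100 scale, where 0 means no effect and 100 means complete control, were assigned by comparison with controls 13 to 15 days after treatment. Compounds went into paddy water over 2-leaf plants flooded to 3 cm.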

[2] = tested on: sedge, umbrella (small-flower umbrella sedge Cyperus difformis); experiment: Test B flooded paddy: sedge, umbrella; assay type: in vivo; conditions: Flood; 250 g ai/ha; applied to paddy water at 2-leaf stage; visually evaluated after 13 to 15 days
Procedure, shortened: as §1

[3] = tested on: ducksalad (Heteranthera limosa); experiment: Test B flooded paddy: ducksalad; assay type: in vivo; conditions: Flood; 250 g ai/ha; applied to paddy water at 2-leaf stage; visually evaluated after 13 to 15 days
Procedure, shortened: as §1

[4] = tested on: wild oat (Avena fatua); experiment: Test C pre-/postemergence: wild oat; assay type: in vivo; conditions: Postemergence
Procedure, shortened: (§2)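 Preemergence on seeds in loam/sand, postemergence on 2–18 cm (1–4-leaf) plants in peat-based medium; compounds in non-phytotoxic solvent with surfactant. After 13–15 days in greenhouse, visual rating versus controls, 0 (no effect) to 100 (complete control).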

[5] = tested on: corn (Zea mays); experiment: Test C pre-/postemergence: corn; assay type: in vivo
Procedure, shortened: as §2

[6] = tested on: foxtail, giant (giant foxtail, Setaria faberii); experiment: Test C pre-/postemergence: foxtail, giant; assay type: in vivo
Procedure, shortened: as §2

[7] = tested on: lambsquarters (Chenopodium album); experiment: Test C pre-/postemergence: lambsquarters; assay type: in vivo
Procedure, shortened: as §2

[8] = tested on: soybean (Glycine max); experiment: Test C pre-/postemergence: soybean; assay type: in vivo
Procedure, shortened: as §2

[9] = tested on: velvetleaf (Abutilon theophrasti); experiment: Test C pre-/postemergence: velvetleaf; assay type: in vivo
Procedure, shortened: as §2

[10] = tested on: Barnyardgrass; experiment: Test C postemergence: barnyardgrass; assay type: in vivo, Echinochloa crus-galli; conditions: 125 g ai/ha, scale 0 to 100, 0 no effect, 100 complete control
[11] = tested on: Waterhemp; experiment: Test C postemergence: waterhemp; assay type: in vivo; conditions: scale 0 to 100 (0 no effect, 100 complete control)
Procedure, shortened: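 Visual 0–100 injury score vs untreated controls (0 none, 100 complete control), taken 13–15 d after treatment. Postemergence spray on potted plants, 2–18 cm, 1–4 leaves; greenhouse.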

[12] = tested on: Oilseed Rape; experiment: Test C preemergence: oilseed rape; assay type: in vivo, Brassica napus; conditions: 125 g ai/ha, scale 0 to 100, 0 no effect, 100 complete control
[13] = 31 g ai/ha, scale 0 to 100 (0 no effect, 100 complete control)
[14] = 62 g ai/ha, scale 0 to 100 (0 no effect, 100 complete control)
[15] = 125 g ai/ha, scale 0 to 100, 0 no effect, 100 complete control
[16] = Postemergence, 16 g ai/ha, scale 0 to 100, 0 no effect, 100 complete control
[17] = Postemergence, 31 g ai/ha, scale 0 to 100 (0 no effect, 100 complete control)
[18] = Postemergence, 62 g ai/ha, scale 0 to 100 (0 no effect, 100 complete control)
[19] = Postemergence, 125 g ai/ha, scale 0 to 100, 0 no effect, 100 complete control
[20] = Preemergence, 16 g ai/ha, scale 0 (no effect) to 100 (complete control)
[21] = Preemergence, 31 g ai/ha, scale of 0 to 100, 0 is no effect, 100 is complete control
[22] = Preemergence, 62 g ai/ha, scale of 0 to 100, 0 is no effect, 100 is complete control
[23] = Preemergence, 125 g ai/ha, scale 0 to 100, 0 no effect, 100 complete control
[24] = 250 g ai/ha, scale 0 to 100 (0 no effect, 100 complete control)
[25] = Postemergence, 250 g ai/ha, scale 0 to 100
[26] = Preemergence, 31 g ai/ha, scale 0 (no effect) to 100 (complete control)
[27] = Preemergence, 250 g ai/ha, scale 0 to 100, 0 no effect, 100 complete control
[28] = Postemergence, 250 g ai/ha, scale 0 to 100 (0 no effect, 100 complete control)

FCc1nn(-c2ccc(F)cc2)nc1Oc1ccnc(C(F)(F)F)c1 [Compound 160]
Plant response rating, Rice (0 to 100 scale, 0 is no effect, 100 is complete control) [1]: 55 | Plant response rating, Sedge, Umbrella (0 to 100 scale, 0 is no effect, 100 is complete control) [2]: 85 | Plant response rating, Ducksalad (0 to 100 scale, 0 is no effect, 100 is complete control) [3]: 90 | Plant response rating, Oat, Wild ([4]; 16 g ai/ha, scale 0 to 100, 0 no effect, 100 complete control): 15 | Plant response rating, Oat, Wild [4, 13]: 30 | Plant response rating, Oat, Wild [4, 14]: 45 | Plant response rating, Oat, Wild [4, 15]: 60 | Plant response rating, Corn [5, 16]: 15 | Plant response rating, Corn [5, 17]: 15 | Plant response rating, Corn [5, 18]: 20 | Plant response rating, Corn [5, 19]: 25 | Plant response rating, Corn [5, 20]: 5 | Plant response rating, Corn [5, 21]: 5 | Plant response rating, Corn [5, 22]: 5 | Plant response rating, Corn [5, 23]: 5 | Plant response rating, Foxtail, Giant [6, 16]: 15 | Plant response rating, Foxtail, Giant [6, 17]: 20 | Plant response rating, Foxtail, Giant [6, 19]: 75 | Plant response rating, Foxtail, Giant [6, 20]: 80 | Plant response rating, Foxtail, Giant [6, 21]: 100 | Plant response rating, Foxtail, Giant [6, 22]: 100 | Plant response rating, Foxtail, Giant [6, 23]: 100 | Plant response rating, Lambsquarters [7, 16]: 70 | Plant response rating, Lambsquarters [7, 17]: 80 | Plant response rating, Lambsquarters [7, 18]: 95 | Plant response rating, Lambsquarters [7, 19]: 95 | Plant response rating, Lambsquarters [7, 20]: 95 | Plant response rating, Lambsquarters [7, 21]: 100 | Plant response rating, Lambsquarters [7, 22]: 100 | Plant response rating, Lambsquarters [7, 23]: 100 | Plant response rating, Soybean [8, 16]: 15 | Plant response rating, Soybean [8, 17]: 25 | Plant response rating, Soybean [8, 18]: 25 | Plant response rating, Soybean [8, 19]: 30 | Plant response rating, Soybean [8, 20]: 0 | Plant response rating, Soybean [8, 21]: 5 | Plant response rating, Soybean [8, 22]: 20 | Plant response rating, Soybean [8, 23]: 20 | Plant response rating, Velvetleaf [9, 16]: 20 | Plant response rating, Velvetleaf [9, 17]: 30 | Plant response rating, Velvetleaf [9, 18]: 50 | Plant response rating, Velvetleaf [9, 19]: 75 | Plant response rating, Velvetleaf [9, 20]: 0 | Plant response rating, Velvetleaf [9, 21]: 5 | Plant response rating, Velvetleaf [9, 22]: 30 | Plant response rating, Velvetleaf [9, 23]: 30 | Plant response rating, Barnyardgrass [10]: 35 | Plant response rating, Waterhemp ([11]; 31 g ai/ha): 95 | Plant response rating, Waterhemp ([11]; 62 g ai/ha): 98 | Plant response rating, Oilseed Rape [12]: 80

CCCc1nn(-c2ccc(F)cc2)nc1Oc1ccnc(C(F)(F)F)c1 [Compound 168]
Plant response rating, Rice (0 to 100 scale, 0 is no effect, 100 is complete control) [1]: 60 | Plant response rating, Sedge, Umbrella (0 to 100 scale, 0 is no effect, 100 is complete control) [2]: 85 | Plant response rating, Ducksalad (0 to 100 scale, 0 is no effect, 100 is complete control) [3]: 80 | Plant response rating, Oat, Wild [4, 13]: 30 | Plant response rating, Oat, Wild [4, 14]: 45 | Plant response rating, Oat, Wild [4, 15]: 50 | Plant response rating, Oat, Wild [4, 24]: 60 | Plant response rating, Corn [5, 17]: 15 | Plant response rating, Corn [5, 18]: 15 | Plant response rating, Corn [5, 19]: 30 | Plant response rating, Corn [5, 25]: 45 | Plant response rating, Corn [5, 26]: 5 | Plant response rating, Corn [5, 22]: 15 | Plant response rating, Corn [5, 23]: 25 | Plant response rating, Corn [5, 27]: 55 | Plant response rating, Foxtail, Giant [6, 17]: 55 | Plant response rating, Foxtail, Giant [6, 18]: 65 | Plant response rating, Foxtail, Giant [6, 19]: 95 | Plant response rating, Foxtail, Giant [6, 25]: 95 | Plant response rating, Foxtail, Giant [6, 26]: 100 | Plant response rating, Foxtail, Giant [6, 22]: 100 | Plant response rating, Foxtail, Giant [6, 23]: 100 | Plant response rating, Foxtail, Giant [6, 27]: 100 | Plant response rating, Lambsquarters [7, 17]: 80 | Plant response rating, Lambsquarters [7, 18]: 95 | Plant response rating, Lambsquarters [7, 19]: 95 | Plant response rating, Lambsquarters [7, 28]: 95 | Plant response rating, Lambsquarters [7, 26]: 98 | Plant response rating, Lambsquarters [7, 22]: 98 | Plant response rating, Lambsquarters [7, 23]: 98 | Plant response rating, Lambsquarters [7, 27]: 98 | Plant response rating, Soybean [8, 17]: 30 | Plant response rating, Soybean [8, 18]: 35 | Plant response rating, Soybean [8, 19]: 60 | Plant response rating, Soybean [8, 28]: 60 | Plant response rating, Soybean [8, 26]: 5 | Plant response rating, Soybean [8, 22]: 10 | Plant response rating, Soybean [8, 23]: 10 | Plant response rating, Soybean [8, 27]: 35 | Plant response rating, Velvetleaf [9, 17]: 60 | Plant response rating, Velvetleaf [9, 18]: 75 | Plant response rating, Velvetleaf [9, 19]: 80 | Plant response rating, Velvetleaf [9, 28]: 90 | Plant response rating, Velvetleaf [9, 26]: 80 | Plant response rating, Velvetleaf [9, 22]: 100 | Plant response rating, Velvetleaf [9, 23]: 100 | Plant response rating, Velvetleaf [9, 27]: 100 | Plant response rating, Barnyardgrass [10]: 90 | Plant response rating, Waterhemp ([11]; 62 g ai/ha): 90 | Plant response rating, Oilseed Rape [12]: 100

CCc1nn(-c2ccc(C(F)(F)F)cc2)nc1Oc1ccnc(C(F)(F)F)c1 [Compound 169]
Plant response rating, Rice (0 to 100 scale, 0 is no effect, 100 is complete control) [1]: 55 | Plant response rating, Sedge, Umbrella (0 to 100 scale, 0 is no effect, 100 is complete control) [2]: 85 | Plant response rating, Ducksalad (0 to 100 scale, 0 is no effect, 100 is complete control) [3]: 85 | Plant response rating, Oat, Wild [4, 13]: 5 | Plant response rating, Oat, Wild [4, 14]: 25 | Plant response rating, Oat, Wild [4, 15]: 30 | Plant response rating, Oat, Wild [4, 24]: 50 | Plant response rating, Corn [5, 17]: 10 | Plant response rating, Corn [5, 18]: 15 | Plant response rating, Corn [5, 19]: 20 | Plant response rating, Corn [5, 25]: 30 | Plant response rating, Corn [5, 26]: 5 | Plant response rating, Corn [5, 22]: 5 | Plant response rating, Corn [5, 23]: 10 | Plant response rating, Corn [5, 27]: 20 | Plant response rating, Foxtail, Giant [6, 17]: 20 | Plant response rating, Foxtail, Giant [6, 18]: 65 | Plant response rating, Foxtail, Giant [6, 19]: 65 | Plant response rating, Foxtail, Giant [6, 25]: 90 | Plant response rating, Foxtail, Giant [6, 26]: 100 | Plant response rating, Foxtail, Giant [6, 22]: 100 | Plant response rating, Foxtail, Giant [6, 23]: 100 | Plant response rating, Foxtail, Giant [6, 27]: 100 | Plant response rating, Lambsquarters [7, 17]: 90 | Plant response rating, Lambsquarters [7, 18]: 90 | Plant response rating, Lambsquarters [7, 19]: 98 | Plant response rating, Lambsquarters [7, 28]: 98 | Plant response rating, Lambsquarters [7, 26]: 90 | Plant response rating, Lambsquarters [7, 22]: 90 | Plant response rating, Lambsquarters [7, 23]: 90 | Plant response rating, Lambsquarters [7, 27]: 90 | Plant response rating, Soybean [8, 17]: 30 | Plant response rating, Soybean [8, 18]: 30 | Plant response rating, Soybean [8, 19]: 50 | Plant response rating, Soybean [8, 28]: 55 | Plant response rating, Soybean [8, 26]: 0 | Plant response rating, Soybean [8, 22]: 5 | Plant response rating, Soybean [8, 23]: 10 | Plant response rating, Soybean [8, 27]: 30 | Plant response rating, Velvetleaf [9, 17]: 50 | Plant response rating, Velvetleaf [9, 18]: 65 | Plant response rating, Velvetleaf [9, 19]: 75 | Plant response rating, Velvetleaf [9, 28]: 80 | Plant response rating, Velvetleaf [9, 26]: 50 | Plant response rating, Velvetleaf [9, 22]: 75 | Plant response rating, Velvetleaf [9, 23]: 75 | Plant response rating, Velvetleaf [9, 27]: 100 | Plant response rating, Barnyardgrass [10]: 75 | Plant response rating, Waterhemp ([11]; 62 g ai/ha): 80 | Plant response rating, Oilseed Rape [12]: 100
